What was measured:
Assay type in all cases: in vivo
[1] = system: Bulrush; assay: Test Example 5: Wagner pot test, herbicidal effect on Bulrush
Protocol: (§1) In a 1/7500 are Wagner pot, sieved paddy field soil (alluvial soil) was charged. Thereafter, in the center portion of the pot, 2 roots of paddy rice (Asahi species) at the 2- to 3-leaf stage were transplanted and 20 seeds of Bulrush per pot were seeded in the surface of the above soil. The pot was submerged at the depth of about 2 cm. The other Dopatrium junceum and umbrella plant were generated naturally. After seeding, when each of the weeds reached the same leaf age as defined in Table 5 given herein, a predetermined concentration of the emulsion prepared according to Example 4 was applied dropwise on the surface of the pot. The test was carried out by repeating the same test three times per area and the results were determined 20 days after the application of the chemicals with regard to the herbicidal effect and chemical injury on paddy rice on the basis of the evaluation index as shown below.
(§2) As the comparative chemicals Molinate, Benthiocarb and DCMU, those commercially available were used.
(§3) In the above table, the inhibition rate was calculated according to the method as described in Test Example 1.

[2] = system: Umbrella plant; assay: Test Example 5: Wagner pot test, herbicidal effect on umbrella plant; details: 20 days after application
Protocol: as §1, §2, §3

[3] = system: Dopatrium junceum; assay: Test Example 5: Wagner pot test, herbicidal effect on Dopatrium junceum
Protocol: as §1, §2, §3

[4] = system: Echinochloa crus-galli var. oryzicola; assay: Test Example 4: field test in submerged directly seeded paddy field, Echinochloa crus-galli var. oryzicola; details: Echinochloa crus-galli, 504 h; 300 g/10 are, emulsion, 2- to 3-leaf stage, 21 days after application; read-out: Inhibition (%) of E. crus-galli var. oryzicola
Protocol: In a Wagner pot of 1/500 are, paddy field soil (alluvial soil) was placed and 50 seeds of Echinochloa crus-galli var. oryzicola and 30 seeds of paddy rice were seeded in the surface layer of said soil and the submerging depth was kept at about 1 cm. When Echinochloa crus-galli var. oryzicola reached at the one leaf stage and 5-leaf stage, the emulsion of a predetermined concentration, prepared according to Example 4 was added dropwise. After 30 days from the treatment with the chemical, dry weights of Echinochloa crus-galli var. oryzicola and paddy rice were measured and the inhibition rate was calculated with reference to untreated area. [formula]
In a 10 m^2 paddy field, 30 g of Echinochloa crus-galli var. oryzicola seeds were seeded at the time of puddling and the depth of submerging was kept at 3-5 cm. 3 Days after the puddling, 50 g of paddy rice at the emergence stage (Asahi species) were seeded. When Echinochloa crus-galli var. oryzicola and paddy rice reached a 2- to 3-leaf stage, a predetermined dose of the emulsion prepared according to Example 4 was applied uniformly by means of a manual spraying machine. Test results were examined 21 days after the application of the chemicals in the similar manner as in Test Example 1.
The comparative chemical 1 used was that commercially available and the comparative chemical 2 used was prepared according to Example 4.

[5] = 300 g/10a, leaf age 3, 20 days after application
[6] = 300 g/10a, leaf age 3-5, 20 days after application
[7] = 600 g/10a, leaf age 3, 20 days after application
[8] = 600 g/10a, leaf age 3-5, 20 days after application
[9] = 300 g/10a, leaf age 2 (first group of columns)
[10] = 300 g/10a, leaf age 2 (second group of columns)
[11] = 600 g/10a, leaf age 2 (first group of columns)
[12] = 600 g/10a, leaf age 2 (second group of columns)
[13] = 300 g/10a, leaf age 2, 20 days after application
[14] = 600 g/10a, leaf age 2, 20 days after application

In the case of CC=CCOc1ccc(NC(=O)N(C)C)cc1 [Mixture of trans- and cis-forms 1:1], the “Weed kill degree, Bulrush” value [1, 5] is reported as 5 (100), the “Weed kill degree, Bulrush” value [1, 6] is reported as 5 (100) and the “Weed kill degree, Bulrush” value [1, 7] is reported as 5 (100). The “Weed kill degree, Bulrush” value [1, 8] was 5 (100), the “Weed kill degree, Umbrella plant” value [2, 9] was 5 (100) and the “Weed kill degree, Umbrella plant” value [2, 10] was 5 (100). For the same compound, the “Weed kill degree, Umbrella plant” value [2, 11] was 5 (100), the “Weed kill degree, Umbrella plant” value [2, 12] was 5 (100) and the “Weed kill degree, Dopatrium junceum” value [3, 13] was 5 (100). The “Weed kill degree, Dopatrium junceum” value [3, 5] was 5 (100), the “Weed kill degree, Dopatrium junceum” value [3, 14] was 5 (100) and the “Weed kill degree, Dopatrium junceum” value [3, 7] was 5 (100). It also gave an inhibition at 3000 g/ha [4] of 100%.

In the case of C/C=C\COc1ccc(NC(=O)N(C)C)cc1 [cis-form, 3-(4-cis-crotyloxyphenyl)-1,1-dimethyl urea], the “Weed kill degree, Bulrush” value [1, 5] is reported as 5 (100), the “Weed kill degree, Bulrush” value [1, 6] is reported as 5 (100) and the “Weed kill degree, Bulrush” value [1, 7] is reported as 5 (100). The “Weed kill degree, Bulrush” value [1, 8] was 5 (100), the “Weed kill degree, Umbrella plant” value [2, 9] was 5 (100) and the “Weed kill degree, Umbrella plant” value [2, 10] was 5 (100). For the same compound, the “Weed kill degree, Umbrella plant” value [2, 11] was 5 (100), the “Weed kill degree, Umbrella plant” value [2, 12] was 5 (100) and the “Weed kill degree, Dopatrium junceum” value [3, 13] was 5 (100). For the same compound, the “Weed kill degree, Dopatrium junceum” value [3, 5] was 5 (100), the “Weed kill degree, Dopatrium junceum” value [3, 14] was 5 (100) and the “Weed kill degree, Dopatrium junceum” value [3, 7] was 5 (100). It also gave an inhibition at 3000 g/ha [4] of 100%.

C/C=C/COc1ccc(NC(=O)N(C)C)cc1 [trans-form, 3-(4-trans-crotyloxyphenyl)-1,1-dimethyl urea] was tested, and the “Weed kill degree, Bulrush” value [1, 5] was 5 (100), the “Weed kill degree, Bulrush” value [1, 6] was 5 (100) and the “Weed kill degree, Bulrush” value [1, 7] was 5 (100). The “Weed kill degree, Bulrush” value [1, 8] was 5 (100), the “Weed kill degree, Umbrella plant” value [2, 9] was 5 (100) and the “Weed kill degree, Umbrella plant” value [2, 10] was 5 (100). For the same compound, the “Weed kill degree, Umbrella plant” value [2, 11] was 5 (100), the “Weed kill degree, Umbrella plant” value [2, 12] was 5 (100) and the “Weed kill degree, Dopatrium junceum” value [3, 13] was 5 (100). The “Weed kill degree, Dopatrium junceum” value [3, 5] was 5 (100), the “Weed kill degree, Dopatrium junceum” value [3, 14] was 5 (100) and the “Weed kill degree, Dopatrium junceum” value [3, 7] was 5 (100). It also gave an inhibition at 3000 g/ha [4] of 100%.

Reference: patent US4255183A, “Substituted phenyl urea and herbicides for use in paddy field” (Hokko Chemical Industry Co., Ltd., priority 1977, dated 1981)
